Assay results reported in patent US9353132B2, “Boron-based 4-hydroxytamoxifen and endoxifen prodrugs as treatment for breast cancer” (XAVIER UNIVERSITY OF LOUISIANA, priority 2012, dated 2016).

Legend:
[1] = test system: estrogen-dependent cell proliferation; details: cited from earlier work
[2] = Kinetic stability of prodrug (conversion to 4-OHT) in MCF-7 cell culture; assay type: in vitro ADME, human; details: human, MCF-7 cell culture; 0 to 144 hours, regression of prodrug concentration relative to 4-OHT
Protocol: (§1) A kinetic study on the stability of the prodrugs was performed. In the study, the relative concentration of a prodrug to 4-OHT was determined at different time points that ranged from 0 hour to 144 hours (6 days).

MCF-7 cells [3] = assay: Cell survival/growth inhibition assay in ER+ MCF-7 breast cancer cells; assay type: cell-based, human; details: for inhibition at 1 µM / inhibition at 0.1 µM: MCF7
Source text: MCF-7 is a human breast adenocarcinoma cell line commonly accepted in the art as useful for in vitro breast cancer studies because it has retained several ideal characteristics particular to mammary epithelium. These characteristics include the ability to process estrogen (in the form of estradiol) via estrogen receptors in the cell cytoplasm. This makes the MCF-7 cell line an estrogen receptor (ER) positive control cell line.
To test if the prodrugs inhibit breast cancer cell growth and proliferation, cell survival assays were conducted.

T47D cells [4] = assay: Cell survival/growth inhibition assay in ER+ T47D breast cancer cells; assay type: cell-based; details: for inhibition at 1 µM / inhibition at 0.1 µM: T47D; for IC50: dose-response, T47D cells
Source text: The T47D cell line is also an ER positive control cell line.
To test if the prodrugs can inhibit growth in another breast cancer cell line that also expresses the estrogen receptor, T47D cells were used.

MCF-7 cell culture = assay: Kinetic stability of prodrug (conversion to 4-OHT) in MCF-7 cell culture; assay type: in vitro ADME, human; details: 0 to 144 hours, regression of prodrug concentration relative to 4-OHT
Protocol: as §1

MCF-7 cells [5] = assay: Oxidative conversion of prodrug to 4-OHT in media after incubation with MCF-7 cells (HPLC-MS/MS); assay type: in vitro ADME, human; details: LC-MS/MS
Protocol: (§2) To determine if the actions of the prodrugs are by means of biotransformation into the compound 4-hydroxytamoxifen, we analyzed the concentrations of the prodrugs and 4-hydroxytamoxifen in the media containing breast cancer cells using an HPLC-MS/MS technique.
(§3) Using HPLC coupled to a linear trap mass spectrometer, the prodrugs and their active product, 4-OHT were separated, identified, and quantified.
(§4) The relative peak areas were measured at 30.4% for prodrug 3 and 69.6% for 4-OHT (FIG. 5 panel A).

T47D cells [6] = assay: Oxidative conversion of prodrug to 4-OHT in media after incubation with T47D cells (HPLC-MS/MS); assay type: in vitro ADME; details: LC-MS/MS
Protocol: as §2, §3, §4

[7] = Homo sapiens, MCF7, dose-response, MCF-7 cells

half-life [2] [h] | Compound | IC50 (MCF-7 cells [3]; [7]) [nM] | inhibition at 1 µM (MCF-7 cells [3]; Homo sapiens, 10^−6 M) [%] | inhibition at 0.1 µM (MCF-7 cells [3]; Homo sapiens, 10^−7 M) [%] | inhibition at 1 µM (T47D cells [4]; Homo sapiens, 10^−6 M) [%] | inhibition at 0.1 µM (T47D cells [4]; Homo sapiens, 10^−7 M) [%] | IC50 (T47D cells [4]; Homo sapiens) [nM] | growth inhibition of T47D cells (T47D cells [4]; 10^−6 M) [%] | further results
– | 4-hydroxytamoxifen [Prodrug 4-OHT] | – | – | – | – | – | – | – | potency relative to tamoxifen in inhibiting estrogen-dependent cell proliferation [1]: 30- to 100 fold
89 | CCC(=C(c1ccc(OCCN(C)C)cc1)c1ccc(B2OC(C)(C)C(C)(C)O2)cc1)c1ccccc1 [Prodrug 1, N,N-Dimethyl-2-(4-(2-phenyl-1-(4-(4,4,5,5-tetramethyl-1,3,2-dioxaborolan-2-yl)phenyl)but-1-en-1-yl)phenoxy)ethanamine] | 150 | 63 | 52 | 60 | 42 | 144 | – | IC50 relative to tamoxifen (MCF-7 cells [3]; cell line not given, values match MCF-7): about 5 times lower; IC50 (MCF-7 cells [3]; dose-response, MCF-7 cells, listed as Boron-4-OHT Prodrug (1)): 148 nM
– | CCC(=C(c1ccc(OCCN(C)C)cc1)c1ccc([B-](F)(F)F)cc1)c1ccccc1.[K+] [Prodrug 2, Potassium (4-(1-(4-(2-(dimethylamino)ethoxy)phenyl)-2-phenylbut-1-en-1-yl)phenyl)trifluoro boronate] | – | – | – | – | – | – | 50 | half-life of prodrug (conversion to 4-OHT) (MCF-7 cell culture): 84 h; growth inhibition of MCF-7 cells (MCF-7 cells [3]; 10^−6 M): 76%; growth inhibition of MCF-7 cells (MCF-7 cells [3]; 10^−7 M): 59%; IC50 (MCF-7 cells [3]; dose-response, MCF-7 cells): 6.3 nM; IC50 (MCF-7 cells [3]; dose-response, MCF-7 cells, listed as Boron-4-OHT Prodrug (2)): 6.26 nM; growth inhibition of T47D cells (T47D cells [4]; 10^−7 M): 38%; IC50 (T47D cells [4]): 260 nM; % peak area of 4-OHT formed from prodrug (MCF-7 cells [5]): 81.6%; % peak area of 4-OHT formed from prodrug (transformed into 4-OHT) (T47D cells [6]): 86.3%
96 | CCC(=C(c1ccc(OCCN(C)C)cc1)c1ccc(B(O)O)cc1)c1ccccc1 [Prodrug 3, (4-(1-(4-(2-(Dimethylamino)ethoxy)phenyl)-2-phenylbut-1-en-1-yl)phenyl)boronic acid] | 42 | 75 | 51 | 54 | 44 | 228 | – | relative peak area of remaining prodrug (MCF-7 cells [5]): 30.4%; % peak area of remaining prodrug (T47D cells [6]): 20.9%
– | CCC(=C(c1ccc(OCCNC)cc1)c1ccc(B(O)O)cc1)c1ccccc1 [Prodrug 11, (4-(1-(4-(2-(Methylamino)ethoxy)phenyl)-2-phenylbut-1-en-1-yl)phenyl)boronic acid] | 25.5 | – | – | 53 | 40 | 189 | – | anti-proliferative efficacy compared to tamoxifen (MCF-7 cells [3]; MCF-7 cells): greater anti-proliferative efficacy than tamoxifen
– | CC/C(=C(\c1ccccc1)c1ccc(OCCN(C)C)cc1)c1ccccc1 [Tamoxifen] | – | 52 | 18 | 46 | 39 | – | 48 | –
